Results taken from patent publication US10646488B2 (Araxes Pharma LLC, priority 2016, dated 2020).

Target: T1, KRAS G12C 1-169, his-tagged protein, GDP-loaded (Homo sapiens, UniProt P01116, G12C)
T1 construct: KRAS G12C 1-169, his-tagged protein, GDP-loaded
Assay: Covalent binding (% modification) to KRAS G12C by mass spectrometry
Experimental: Test compounds were prepared as 10 mM stock solutions in DMSO (Fisher cat # BP-231-100). KRAS G12C 1-169, his-tagged protein, GDP-loaded was diluted to 2 μm in buffer (20 mM Hepes, 150 mM NaCl, 1 mM MgCl2). Compounds were tested for activity as follows:
Compounds were diluted to 50× final test concentration in DMSO in 96-well storage plates. Compound stock solutions were vortexed before use and observed carefully for any sign of precipitation. Dilutions were as follow: • For 100 μM final compound concentration, compounds were diluted to 5000 μM (5 μl 10 mM compound stock+5 μl DMSO and mixed well by pipetting. • For 30 μM final compound concentration, compounds were diluted to 1500 μM (3 μl 10 mM compound stock+17 μl DMSO) and mixed well by pipetting. • For 10 μM final compound concentration, compounds were diluted to 500 μM (2 μl 10 mM compound stock+38 μl DMSO) and mixed well by pipetting. 49 μl of the stock protein solution was added to each well of a 96-well PCR plate (Fisher cat #1423027). 1 μl of the diluted 50× compounds were added to appropriate wells in the PCR plate using 12-channel pipettor. Reactions were mixed carefully and thoroughly by pipetting up/down with a 200·1 multi-channel pipettor. […] 5 μl of 2% formic acid (Fisher cat # A117) in DI H2O was then added to each well followed by mixing with a pipette. The plate was then resealed with aluminum seal and stored on dry ice until analyzed as described below.
The above described assays were analyzed by mass spectrometry according to one of the following two procedures:
The MS instrument is set to positive polarity, 2 GHz resolution, and low mass (1700) mode and allowed to equilibrate for 30 minutes. The instrument is then calibrated, switched to acquisition mode and the appropriate method loaded.
After another 30 minute equilibration time, a blank batch (i.e., buffer) is run to ensure equipment is operating properly. The samples are thawed at 37° C. for 10 minutes, briefly centrifuged, and transfer to the bench top. Wells A1 and H12 are spiked with 1 uL 500 uM internal standard peptide, and the plates centrifuged at 2000×g for 5 minutes. The method is then run and masses of each individual well recorded.
The masses (for which integration data is desired) for each well are pasted into the platemap and exported from the analysis. Masses for the internal standards are exported as well. The data at 50 ppm is extracted for the +19 charge state, and identity of well A1 is assigned using the internal standard spike and integrated. Peak data is exported as a TOF list and the above steps are repeated individually, for the +20, 21, 22, 23, 24, and 25 charge states.
The masses and peak intensities of KRAS G12C protein species were measured using a Dionex RSLCnano system (Thermo Scientific) connected to a Q Exactive Plus mass spectrometer (Thermo Scientific).
[…] of sample was each loaded onto a Aeris™ 3.6 μm WIDEPORE C4 200 Å, LC Column 50×2.1 mm column maintained at 40° C. at a flow rate of 600 μl min^−1 with […] (0.1% formic acid in acetonitrile). The liquid chromatography conditions were 20% solvent B for 1 min, 20% to 60% solvent B for 1.5 min, 60% to 90% solvent for 0.5 min, 90% solvent B for 0.2 min, 90% to 20% solvent B for 0.2 min, and then equilibrated for 1.6 min before the following sample injection. The flow rate was maintained at 600 μl min^−1 throughout the sample analysis.
The mass spectrometer was operated in profile mode at a resolution of 17500, 5 microscans, using 50 msec max injection time and an AGC target of 1e6, and a full mass range from 800-1850 m/z was recorded. The HCD trapping gas was optimized for maximum sensitivity for intact proteins. The ionization method was electrospray ionization, which used a spray voltage of 4 kV, sheath gas flow set to 50 au, auxiliary gas flow set to 10 au and sweep gas flow set to 1 au. […]

[1] = covalent binding to KRAS G12C after a ten minute incubation period
[2] = covalent binding to KRAS G12C after a three minute incubation period

C=CC(=O)N1[C@H](C)CN(c2nc(NC3CCN(C4CC4)CC3)nc3c(F)c(-c4c(C)ccc5[nH]ncc45)c(Cl)cc23)C[C@@H]1C [Compound 33, 1-((2R,6S)-4-(6-chloro-2-((1-cyclopropyl-piperidin-4-yl)amino)-8-fluoro-7-(5-methyl-1H-indazol-4-yl)quinazolin-4-yl)-2,6-dimethyl-piperazin-1-yl) prop-2-en-1-one]
Binding % [1]: ++ (++ indicates binding activity from 50 to 90%)

C=CC(=O)N1C[C@H](C)N(c2nc(OCCN(CC)CC)nc3c(F)c(-c4c(O)cccc4F)c(Cl)cc23)C[C@H]1C (atropisomer, axis not shown) [Compound 75, 1-((2R,5S)-4-((S)-6-chloro-2-(2-(diethylamino)ethoxy)-8-fluoro-7-(2-fluoro-6-hydroxyphenyl)quinazolin-4-yl)-2,5-dimethyl-piperazin-1-yl) prop-2-en-1-one]
Binding % [1]: +++ (+++ indicates binding activity greater than 90%)

C=CC(=O)N1C[C@H](C)N(c2nc(N3CC(N4CCC(F)(F)C4)C3)nc3c(F)c(-c4c(O)cccc4F)c(Cl)cc23)C[C@H]1C [Compound 103, 1-((2R,5S)-4-(6-chloro-2-(3-(3,3-difluoro-pyrrolidin-1-yl)azetidin-1-yl)-8-fluoro-7-(2-fluoro-6-hydroxyphenyl)quinazolin-4-yl)-2,5-dimethyl-piperazin-1-yl) prop-2-en-1-one]
Binding % [2]: + (+ indicates binding activity greater than 0% and up to 50%)

C=CC(=O)N1[C@H](C)CN(c2nc(OCCN(CC)CC)nc3c(F)c(-c4c(C)ccc5[nH]ncc45)c(Cl)cc23)C[C@@H]1C [Compound 46, 1-((2R,6S)-4-(6-Chloro-2-(2-(Diethylamino)Ethoxy)-8-Fluoro-7-(5-Methyl-1H-Indazol-4-Yl)Quinazolin-4-Yl)-2,6-Dimethylpiperazin-1-Yl)Prop-2-En-1-One]
Binding % [1]: ++ (++ indicates binding activity from 50 to 90%)

C=CC(=O)N1CCN(c2nc(N3CC(N(C)C)C3)nc3c(F)c(-c4c(O)cccc4F)c(Cl)cc23)C[C@@H]1C [Compound 82, 1-((2S)-4-(6-chloro-2-(3-(dimethylamino)azetidin-1-yl)-8-fluoro-7-(2-fluoro-6-hydroxyphenyl)quinazolin-4-yl)-2-methyl-piperazin-1-yl) prop-2-en-1-one]
Binding % [1]: ++ (++ indicates binding activity from 50 to 90%)

[2H]C([2H])([2H])N(C1CN(c2nc(N3C[C@@H](C)N(C(=O)C=C)C[C@@H]3C)c3cc(Cl)c(-c4c(C)ccc5[nH]ncc45)c(F)c3n2)C1)C([2H])([2H])[2H] (atropisomer, axis not shown) [Compound 227, 1-((2R,5S)-4-(6-chloro-2-(3-(bis(triduetero-methyl)amino)azetidin-1-yl)-8-fluoro-7-((S)-5-methyl-1H-indazol-4-yl)quinazolin-4-yl)-2,5-dimethyl-piperazin-1-yl) prop-2-en-1-one]
Binding % [2]: + (+ indicates binding activity greater than 0% and up to 50%)

C=CC(=O)N1C[C@H](C)N(c2nc(Oc3ccnn3C)nc3c(F)c(-c4c(C)ccc5[nH]ncc45)c(Cl)cc23)C[C@H]1C [Compound 204, 1-((2R,5S)-4-(6-chloro-8-fluoro-7-(5-methyl-1H-indazol-4-yl)-2-((1-methyl-1H-pyrazol-5-yl)oxy)quinazolin-4-yl)-2,5-dimethyl-piperazin-1-yl) prop-2-en-1-one]
Binding % [2]: ++ (++ indicates binding activity from 50 to 90%)

C=CC(=O)N1CCN(c2nc(NC3CCN(C4CC4)CC3)nc3c(F)c(-c4c(C)ccc5[nH]ncc45)c(Cl)cc23)[C@@H](C)C1 (atropisomer, axis not shown) [Compound 14, 1-((S)-4-(6-chloro-2-((1-cyclopropyl-piperidin-4-yl)amino)-8-fluoro-7-((S)-5-methyl-1H-indazol-4-yl)quinazolin-4-yl)-3-methyl-piperazin-1-yl) prop-2-en-1-one]
Binding % [1]: + (+ indicates binding activity up to 50%)

C=CC(=O)N1CCN(c2nc(N3CC(N(CC)CC)C3)nc3c(F)c(-c4c(O)cccc4F)c(Cl)cc23)C[C@H]1C [Compound 164, 1-((2R)-4-(6-chloro-2-(3-(diethylamino)azetidin-1-yl)-8-fluoro-7-(2-fluoro-6-hydroxyphenyl)quinazolin-4-yl)-2-methyl-piperazin-1-yl) prop-2-en-1-one]
Binding % [2]: ++ (++ indicates binding activity from 50 to 90%)

C=CC(=O)N1C[C@H](C)N(c2nc(OCCN(CC)CC)nc3c(F)c(-c4c(O)cccc4F)c(Cl)cc23)C[C@H]1C (atropisomer, axis not shown) [Compound 74, 1-((2R,5S)-4-((R)-6-chloro-2-(2-(diethylamino)ethoxy)-8-fluoro-7-(2-fluoro-6-hydroxyphenyl)quinazolin-4-yl)-2,5-dimethyl-piperazin-1-yl) prop-2-en-1-one]
Binding % [1]: + (+ indicates binding activity up to 50%)

C=CC(=O)N1CCN(c2nc(NC3CCN(C4CC4)CC3)nc3c(F)c(-c4c(C)ccc5[nH]ncc45)c(Cl)cc23)[C@@H](C)C1 (atropisomer, axis not shown) [Compound 13, 1-((S)-4-(6-chloro-2-(1-cyclopropyl-piperidin-4-ylamino)-8-fluoro-7-((R)-5-methyl-1H-indazol-4-yl)quinazolin-4-yl)-3-methyl-piperazin-1-yl) prop-2-en-1-one]
Binding % [1]: +++ (+++ indicates binding activity greater than 90%)

C=CC(=O)N1C[C@H](C)N(c2nc(N3CC(N(C)C4CC4)C3)nc3c(F)c(-c4c(C)ccc5cn[nH]c45)c(Cl)cc23)C[C@H]1C [Compound 133, 1-((2R,5S)-4-(6-chloro-2-(3-(cyclopropyl (methyl)amino)azetidin-1-yl)-8-fluoro-7-(6-methyl-1H-indazol-7-yl)quinazolin-4-yl)-2,5-dimethyl-piperazin-1-yl) prop-2-en-1-one]
Binding % [2]: ++ (++ indicates binding activity from 50 to 90%)

C=CC(=O)N1C[C@H](C)N(c2nc(N3CC(N(C)C)C3)nc3c(F)c(-c4c(C)ccc5cn[nH]c45)c(Cl)cc23)C[C@H]1C [Compound 187, 1-((2R,5S)-4-(6-chloro-2-(3-(dimethylamino)azetidin-1-yl)-8-fluoro-7-(6-methyl-1H-indazol-7-yl)quinazolin-4-yl)-2,5-dimethyl-piperazin-1-yl) prop-2-en-1-one]
Binding % [2]: +++ (+++ indicates binding activity greater than 90%)

C=CC(=O)N1C[C@H](C)N(c2nc(N3CC(N(C)CC)C3)nc3c(F)c(-c4c(O)cccc4F)c(Cl)cc23)C[C@H]1C [Compound 98, 1-((2R,5S)-4-(6-chloro-2-(3-(ethyl(methyl)amino)azetidin-1-yl)-8-fluoro-7-(2-fluoro-6-hydroxyphenyl)quinazolin-4-yl)-2,5-dimethyl-piperazin-1-yl) prop-2-en-1-one]
Binding % [2]: ++ (++ indicates binding activity from 50 to 90%)

C=CC(=O)N1C[C@@H](C)N(c2nc(OCCN3CC(F)(F)C3)nc3c(F)c(-c4c(C)ccc5cn[nH]c45)c(Cl)cc23)[C@@H](C)C1 [Compound 47, 1-((3S,5R)-4-(6-chloro-2-(2-(3,3-difluoroazetidin-1-yl)ethoxy)-8-fluoro-7-(6-methyl-1H-indazol-7-yl)quinazolin-4-yl)-3,5-dimethyl-piperazin-1-yl) prop-2-en-1-one]
Binding % [1]: ++ (++ indicates binding activity from 50 to 90%)
